Reference: patent publication US20130064907A1, “COMBINATIONS OF ANTIFUNGAL COMPOUNDS AND TEA TREE OIL” (priority 2010, published 2013)

How the values were obtained:
Assay type in all cases: in vivo
tomato powdery mildew = assay: Tomato Powdery Mildew - Site 1, foliar sprays; details: 12 days from fourth application; TG 0.3%, Azoxystrobin 50 cc/dunam, alone or combined
Method: (§1) Various combinations of TTO (supplied as Timorex Gold®) and synthetic fungicidal compositions (supplied as commercial products to be diluted by the end user prior to use) were tested against tomato powdery mildew and pepper powdery mildew. Open field or greenhouse-grown plants of the crops studied were drip irrigated and fertilized according to known recommendations for each crop. Treatments were applied in a randomized complete block, with 5 replications per treatment. Plot size in each instance was of 5-10 m length, containing 6-20 plants, depending on the crop. Fungicidal treatment was applied using backpack sprayer equipped with a mist blower (STHIL 340) to spray a volume of 600 liter/ha, depending on the crop. From three to eight foliar sprays were applied at 7-14 day intervals, depending on the crop. Disease severity was evaluated by determining the leaf area covered with powdery mildew (disease severity) on each of 20 leaves randomly selected per each replicate. […] To analyze the results, an arc-sin transformation was performed on the raw data, and analysis of variance (ANOVA) using the SAS GLM procedure was applied to the transformed data. The Tukey-Kramer Test was applied to determine whether differences between treatments were significant. In the tables, “a”, “b” and “c”, refer to differences in statistical analysis that are familiar to users of the Tukey-Kramer test; “SF” is the “synergy” factor, calculated using the Abbott formula (SF=observed efficacy (Eobs)/expected efficacy (Eexp), where Eexp=α+β−[…], where α and β denote the levels of control afforded by materials α and β, respectively, alone; see e.g. Levy et al., EPPO Bull. 16, 651-657 (1986)).

pepper powdery mildew [1] = assay: Pepper Powdery Mildew - Site 1, foliar sprays; details: 14 days from third application; TG 0.3%, Triadimenol 75 cc/dunam, Azoxystronin 50 cc/dunam, Trifloxystrobin 20 cc/dunam, alone or combined with TG
Method: as §1

pepper powdery mildew [2] = assay: Pepper Powdery Mildew - Site 2, foliar sprays; details: 15 days from ninth application; TG 0.3%, Trifloxystrobin 20 gr/dunam, Myclobutanil 60 gr/dunam, alone or combined with TG
Method: Various combinations of TTO (supplied as Timorex Gold®) and synthetic fungicidal compositions (supplied as commercial products to be diluted by the end user prior to use) were tested against tomato powdery mildew and pepper powdery mildew. Open field or greenhouse-grown plants of the crops studied were drip irrigated and fertilized according to known recommendations for each crop. Treatments were applied in a randomized complete block, with 5 replications per treatment. Plot size in each instance was of 5-10 m length, containing 6-20 plants, depending on the crop. Fungicidal treatment was applied using backpack sprayer equipped with a mist blower (STHIL 340) to spray a volume of 600 liter/ha, depending on the crop. […] Disease severity was evaluated by determining the leaf area covered with powdery mildew (disease severity) on each of 20 leaves randomly selected per each replicate. […] To analyze the results, an arc-sin transformation was performed on the raw data, and analysis of variance (ANOVA) using the SAS GLM procedure was applied to the transformed data. The Tukey-Kramer Test was applied to determine whether differences between treatments were significant. In the tables, “a”, “b” and “c”, refer to differences in statistical analysis that are familiar to users of the Tukey-Kramer test; “SF” is the “synergy” factor, calculated using the Abbott formula (SF=observed efficacy (Eobs)/expected efficacy (Eexp), where Eexp=α+β−[…], where α and β denote the levels of control afforded by materials α and β, respectively, alone; see e.g. Levy et al., EPPO Bull. 16, 651-657 (1986)).

`CO/C=C(/C(=O)OC)c1ccccc1Oc1cc(Oc2ccccc2C#N)ncn1` [Azoxystrobin] was tested, and the “Incidence: % leaves infected” value (tomato powdery mildew) was 45%, the “Incidence: Efficacy (%)” value (tomato powdery mildew) was 55.0% and the “Severity: % infected leaf area” value (tomato powdery mildew) was 5%. For the same compound, the “Severity: Efficacy (%)” value (tomato powdery mildew) was 91.7%, the “Incidence: % leaves infected” value (pepper powdery mildew [1]) was 22.5% and the “Incidence: Efficacy (%)” value (pepper powdery mildew [1]) was 73.1%. For the same compound, the “Severity: % infected leaf area” value (pepper powdery mildew [1]) was 2.9% and the “Severity: Efficacy (%)” value (pepper powdery mildew [1]) was 88.1%.

In the case of `CON=C(C(=O)OC)c1ccccc1CON=C(C)c1cccc(C(F)(F)F)c1` [Trifloxystrobin], the “Incidence: % leaves infected” value (pepper powdery mildew [1]) is reported as 25%, the “Incidence: Efficacy (%)” value (pepper powdery mildew [1]) is reported as 70.1% and the “Severity: % infected leaf area” value (pepper powdery mildew [1]) is reported as 1.9%. The “Severity: Efficacy (%)” value (pepper powdery mildew [1]) was 92.2%, the “Incidence: % leaves infected” value (pepper powdery mildew [2]) was 2% and the “Incidence: Efficacy (%)” value (pepper powdery mildew [2]) was 96.9%. For the same compound, the “Severity: % infected leaf area” value (pepper powdery mildew [2]) was 0.1% and the “Severity: Efficacy (%)” value (pepper powdery mildew [2]) was 99.6%.

For `CCCCC(C#N)(Cn1cncn1)c1ccc(Cl)cc1` (stereo not drawn) [Myclobutanil], the “Incidence: % leaves infected” value (pepper powdery mildew [2]) was 2%, the “Incidence: Efficacy (%)” value (pepper powdery mildew [2]) was 96.9% and the “Severity: % infected leaf area” value (pepper powdery mildew [2]) was 0%. For the same compound, the “Severity: Efficacy (%)” value (pepper powdery mildew [2]) was 100.0%.

With `CC(C)(C)C(O)C(Oc1ccc(Cl)cc1)n1cncn1` (stereo not drawn) [Triadimenol] the “Incidence: % leaves infected” value (pepper powdery mildew [1]) was 48.7%, the “Incidence: Efficacy (%)” value (pepper powdery mildew [1]) was 41.8% and the “Severity: % infected leaf area” value (pepper powdery mildew [1]) was 8.4%. The “Severity: Efficacy (%)” value (pepper powdery mildew [1]) was 65.6%.
